These results are taken from patent US20260191835A1, “COMBINATIONS COMPRISING A MENIN-MLL INHIBITOR AND AT LEAST ONE OTHER THERAPEUTIC AGENT” (JANSSEN PHARMACEUTICA NV, priority 2022, published 2026).

Molecules are shown by their SMILES.

One series relates to MEIS1 mRNA expression. The series is described as follows: MEIS1 mRNA expression assay (Quantigene Singleplex) in MOLM14. To be noted: Homo sapiens, MOLM-14, 48 h, MOLM14 cells, 48 hours with compound. The format is cell-based. The procedure:
2b) MEIS1 mRNA Expression Assay
MEIS1 mRNA expression upon treatment of compound was examined by Quantigene Singleplex assay (Thermo Fisher Scientific). This technology allows for direct quantification of mRNA targets using probes hybridizing to defined target sequences of interest and the signal is detected using a Multimode plate reader Envision (PerkinElmer). The MOLM14 cell line was used for this experiment. Cells were plated in 96-well plates at 3,750 cells/well in the presence of increasing concentrations of compounds. After incubation of 48 hours with compounds, cells were lysed in lysis buffer and incubated for 45 minutes at 55° C. Cell lysates were mixed with human MEIS1 specific capture probe or human RPL28 (Ribosomal Protein L28) specific probe as a normalization control, as well as blocking probes. Cell lysates were then transferred to the custom assay hybridization plate (Thermo Fisher Scientific) and incubated for 18 to 22 hours at 55° C. Subsequently, plates were washed to remove unbound materials followed by sequential addition of preamplifiers, amplifiers, and label probe. Signals (=gene counts) were measured with a Multimode plate reader Envision. IC50s were calculated by dose-response modelling using appropriate software. For all non-housekeeper genes response equal counts corrected for background and relative expression. For each sample, each test gene signal (background subtracted) was divided by the normalization gene signal (RPL28: background subtracted). Fold changes were calculated by dividing the normalized values for the treated samples by the normalized values for the DMSO treated sample. Fold changes of each target gene were used for the calculation of IC50s.

The test system of the next series is MOLM14 cells. Kind of series: Proliferation assay (spheroid assay), MOLM14. The conditions noted are these: Homo sapiens, MOLM-14, 192 h, 8 days; read-out: spheroid assay_MOLM14 IC50. Type of series: cell-based. The protocol: The anti-proliferative effect of menin/MLL protein/protein interaction inhibitor test compounds was assessed in human leukemia cell lines. The cell line MOLM14 harbors a MLL translocation and expresses the MLL fusion protein MLL-AF9, respectively, as well as the wildtype protein from the second allele. OCI-AML3 cells that carry the NPM1c gene mutation were also tested. […] KO-52 was used as a control cell line containing two MLL (KMT2A) wildtype alleles in order to exclude compounds that display general cytotoxic effects.
MOLM14 cells were cultured in RPMI-1640 (Sigma Aldrich) supplemented with 10% heat-inactivated fetal bovine serum (HyClone), 2 mM L-glutamine (Sigma Aldrich) and 50 μg/ml gentamycin (Gibco). KO-52 and OCI-AML3 cell lines were propagated in alpha-MEM (Sigma Aldrich) supplemented with 20% heat-inactivated fetal bovine serum (HyClone), 2 mM L-glutamine (Sigma Aldrich) and 50 µg/ml gentamycin (Gibco).
In order to assess the anti-proliferative effects, 200 MOLM14 cells, […] or 300 KO-52 cells were seeded in 200 μl media per well in 96-well round bottom, ultra-low attachment plates (Costar, catalogue number 7007). Cell seeding numbers were chosen based on growth curves to ensure linear growth throughout the experiment. Test compounds were added at different concentrations and the DMSO content was normalized to 0.3%. Cells were incubated for 8 days at 37° C. and 5% CO2. Spheroid like growth was measured in real-time by live-cell imaging (IncuCyteZOOM, Essenbio, 4× objective) acquiring images at day 8. Confluence (%) as a measure of spheroid size was determined using an integrated analysis tool.
In order to determine the effect of the test compounds over time, the confluence in each well as a measure of spheroid size, was calculated. Confluence of the highest dose of a reference compound was used as baseline for the LC (Low control) and the confluence of DMSO treated cells was used as 0% cytotoxicity (High Control, HC).
Absolute IC50 values were calculated as percent change in confluence as follows: • LC=Low Control: cells treated with e.g. […] of the cytotoxic agent staurosporin, or e.g. cells treated with a high concentration of an alternative reference compound • HC=High Control: Mean confluence (%) (DMSO treated cells)
GraphPad Prism (version 7.00) was used to calculate the IC50. Dose-response equation was used for the plot of % Effect vs Log 10 compound concentration with a variable slope and fixing the maximum to 100% and the minimum to 0%.

Series [1] addresses T1, Menin/MLL (terbium chelate-labeled menin, FITC-MBM1 peptide) (Homo sapiens, UniProt O00255, T541A).
T1 construct: Menin (a.a 1-610-6×his tag)
T1 sequence (O00255 with tags, fused parts or gaps T541A): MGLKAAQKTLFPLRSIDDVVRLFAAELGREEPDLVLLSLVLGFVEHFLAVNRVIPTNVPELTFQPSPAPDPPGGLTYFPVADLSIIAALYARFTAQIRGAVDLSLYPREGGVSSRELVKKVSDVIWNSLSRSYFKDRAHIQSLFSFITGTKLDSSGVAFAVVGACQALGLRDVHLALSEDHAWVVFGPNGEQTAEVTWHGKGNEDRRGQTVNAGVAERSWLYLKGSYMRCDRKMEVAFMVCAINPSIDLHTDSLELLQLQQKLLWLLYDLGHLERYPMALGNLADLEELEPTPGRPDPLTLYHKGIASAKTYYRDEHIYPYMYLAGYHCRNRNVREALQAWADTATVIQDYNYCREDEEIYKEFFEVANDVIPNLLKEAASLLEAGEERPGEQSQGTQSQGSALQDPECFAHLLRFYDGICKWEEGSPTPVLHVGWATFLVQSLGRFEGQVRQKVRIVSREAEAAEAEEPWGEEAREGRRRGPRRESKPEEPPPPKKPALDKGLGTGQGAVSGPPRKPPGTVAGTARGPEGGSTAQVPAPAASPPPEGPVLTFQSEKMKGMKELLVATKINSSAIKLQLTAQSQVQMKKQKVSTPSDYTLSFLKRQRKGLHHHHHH
Kind of series: Menin/MLL homogenous time-resolved fluorescence (HTRF) assay. The format is binding. To be noted: 30 min incubation of test compound with terbium chelate-labeled menin. The procedure: 1) Menin/MLL Homogenous Time-Resolved Fluorescence (HTRF) Assay
To an untreated, white 384-well microtiter plate was added 40 nL 200× test compound in DMSO and 4 μL 2× terbium chelate-labeled menin (vide infra for preparation) in assay buffer (40 mM Tris·HCl, pH 7.5, 50 mM NaCl, 1 mM DTT (dithiothreitol) and 0.05% Pluronic F-127). After incubation of test compound and terbium chelate-labeled menin for 30 min at ambient temperature, 4 μL 2×FITC-MBM1 peptide (FITC-O-alanine-[…]-NH2) (“FITC” means fluorescein isothiocyanate) in assay buffer was added, the microtiter plate centrifuged at 1000 rpm for 1 min and the assay mixtures incubated for 15 min at ambient temperature. The relative amount of menin-FITC-MBM1 complex present in an assay mixture is determined by measuring the homogenous time-resolved fluorescence (HTRF) of the terbium/FITC donor/acceptor fluorphore pair using an EnVision microplate reader (ex. 337 nm/terbium em. 490 nm/FITC em. 520 nm) at ambient temperature. The degree of fluorescence resonance energy transfer (the HTRF value) is expressed as the ratio of the fluorescence emission intensities of the FITC and terbium fluorophores (F^em 520 nm/F^em 490 nm). […]
Compound potencies were determined by first calculating % inhibition at each compound concentration according to equation 1: […]
(In TR-FRET formats the signal depends on donor and acceptor labels being close together.)

Series [2] is described as follows: Dynamic vapor sorption (DVS) moisture sorption analysis. The format is physicochemical. The procedure:
Dynamic Vapor Sorption (DVS) The moisture sorption analysis (DVS) was performed using a ProUmid GmbH & Co. KG Vsorp Enhanced dynamic vapor sorption apparatus. The moisture profile was evaluated by monitoring vapor adsorption/desorption over the range of 0 to 90% relative humidity at 25° C. The sample weight equilibrium criteria were set at 0.01% change in 45 min with minimum and maximum time of acclimation at 50 min and 120 min, respectively. The moisture profile consisted of 2 cycles of vapor adsorption/desorption.

[3] abbreviates: common ambient RH of 40% to 75%.

For `CNC(=O)N1CCC(CN2CC[C@H](Cc3cn(-c4ccc(F)cc4C(=O)N(C)C(C)C)c4cncc(C)c34)C2)CC1` (single isomer, unassigned) [Compound 101], the results for the IC50 with MEIS1 mRNA expression and in the series with MOLM14 cells were 7 nM and 41 nM, respectively.

Take `COCC(=O)N1CCC(C(C)N2CCC(Cc3cn(-c4ccc(F)cc4C(=O)N(C)C(C)C)c4cncc(C)c34)C2)CC1` (single isomer, unassigned) [Compound 117a]: the IC50 – broadly, the point on the concentration scale where inhibition reaches its midpoint – amounted to 7 nM in the series with MEIS1 mRNA expression and 5 nM in the series with MOLM14 cells.

With `CC(=O)N1CC[C@@H](N2CC(Cc3cn(-c4ccc(F)cc4C(=O)N(C)C(C)C)c4cncc(C)c34)C2)C[C@H]1C` (single isomer, unassigned) [Compound 292a], the IC50 in series [1] was 0.132 nM.

Regarding `CC(=O)N1C[C@H]2CC(N3CC(Cc4cn(-c5ccc(F)cc5C(=O)N(C)C(C)C)c5cncc(C)c45)C3)C[C@H]2C1` (single isomer, unassigned) [Compound 294a], the results for the IC50 (in series [1]; with MEIS1 mRNA expression) were 0.237 nM and 365 nM, respectively.

As for `CC(=O)N1CCC(CN2CC[C@@H](Cc3cn(-c4ccc(F)cc4C(=O)N(C)C(C)C)c4cncc(C)c34)C2)CC1.Cl` [Compound 51a], in series [2] (2 cycles of vapor adsorption/desorption), the “solid-state form stability after the DVS test (XRPD)” value is given as “No indication of a solid-state form change was observed”. For the same compound, in series [2] (setting [3]), the “total moisture mass at equilibrium” value is 8.5-9.5% and the “water content at equilibrium” value is on record as “around 3 equivalents of water”. Also, in series [2] (crystalline HCl salt Form, 0 to 90% relative humidity at 25° C.), the “hygroscopicity (DVS change in mass)” value is on record as “hygroscopic”. In addition, the “moisture adsorbed and desorbed, by mass on average” value in series [2] (humidity range of 20-90% RH, 25° C., slowly and reversibly) is given as “up to 2.5%”.

On to `CC(=O)N1CCC(N2CC[C@H](Cc3cn(-c4ccc(F)cc4C(=O)N(C)C(C)C)c4cncc(C)c34)C2)CC1` [Compound 156], for which the results for the IC50 in the series with MEIS1 mRNA expression and with MOLM14 cells were 187 nM and 42 nM, respectively.

With `Cc1cncc2c1c(CC1CN(CC3CCNC(=O)C3)C1)cn2-c1ccc(F)cc1C(=O)N(C)C(C)C` (stereo not shown) [Compound 196], the IC50 in the series with MEIS1 mRNA expression worked out at 438 nM.

Regarding `CC(=O)N1CC2CC(N3CC(Cc4cn(-c5ccc(F)cc5C(=O)N(C)C(C)C)c5cncc(C)c45)C3)CC2C1` (stereo not shown) [Compound 294b], in the series on MEIS1 mRNA expression, the IC50 is 153 nM.
